Where “and” joins values, the source holds several entries; their conditions need not be identical. Identical values can stand only once.
System: 855422-203-R-J1-PDC complex spheroid growth
Experiment: Anticancer human tumor 855422-203-R-J1-PDC patient-derived bladder carcinoma cell line growth inhibition [AhR]
Conditions: for viability, T/C: stronger effect = lower value
Description: Multicellular complex tumor spheroid response to aryl hydrocarbon receptor antagonists in combination with a variety of drugs and investigational agents in selected tumor cell lines
The current study was undertaken to assess response to aryl hydrocarbon receptor antagonists in combination with standard-of-care drugs and investigational agents in solid tumor complex spheroid models. Complex spheroids include a stromal component modeled by human endothelial cells (HUVEC) and fibroblasts modeled by human mesenchymal stem cells (MSCs). The concentration ranges selected for each drug and investigational agent were based upon clinically achievable concentrations if the clinical Cmax of the agent was known.
Compounds. The drugs and investigational agents: BAY 2416964 (NSC825713), GNF351 (NSC835774), CH-223191 (NSC835775), CPI-455 (NSC825282), aza-TdCyd (NSC777586), decitabine (NSC127716), belinostat (NSC758774), entinostat (NSC756642), pevonedistat (NSC761192), tazemetostat (NSC777109), talazoparib (NSC765396), olaparib (NSC753686), selinexor (NSC780203), nedisertib (M3814, NSC802822), bortezomib (NSC756655), venetoclax (NSC766270), doxorubicin (NSC123127), elimusertib (BAY189344, NSC800525), ceralasertib (AZD6738, NSC777638), TAK-243 (NSC785004), alisertib (NSC759677), etoposide (NSC141540), topotecan (NSC609699), eribulin (NSC707389), gemcitabine (NSC613327), carboplatin (NSC241240), cisplatin (NSC119875), and SN-38 (NSC673596) were obtained from the National Cancer Institute (NCI) Developmental Therapeutics Program Chemical Repository (32). The FDA-approved anticancer drug set is available from the Developmental Therapeutics Program at https://dtp.cancer.gov/organization/dscb/obtaining/available plates.htm. […] The stock solutions were prepared in dimethyl sulfoxide (DMSO, Sigma-Aldrich, St. Louis, MO, cat. D2650), except for the platinum compounds which were prepared in saline (Quality Biological, Gaithersburg, MD, cat. 114-055-101), at 800-fold the tested concentration and stored at -70 degrees C prior to their use. All drugs and investigational agents were tested over a range starting from a high concentration at or near the clinical Cmax and decreasing in half-log increments. If the clinical Cmax for an agent had not been determined, the highest concentration tested was 10 microM (Table 1).
Cell Culture. All cells were maintained in an incubator at 37 degrees C and 5% CO2 with 95% humidity. The PDC lines were cultured according to standard operating procedures established by the NCI PDMR (https://pdmr.cancer.gov). Briefly, all PDCs were thawed and cultured in Matrigel-coated flasks prepared with a working solution of 1X Ham's F-12 nutrient mix, without supplementation (Invitrogen, Waltham, MA, cat. 11765054), 100 U/mL penicillin-streptomycin (Invitrogen, cat. 15140122), and 2.5% Matrigel (Corning Inc., Corning, NY, cat. 354248) for the first three passages. All PDCs were cultured in complete DMEM/F-12 media containing advanced DMEM/F-12 (Invitrogen, cat. 12634028), 4.9% defined fetal bovine serum, heat inactivated (HyClone Laboratories Inc., Logan, UT, cat. SH30070.03HI), 389 ng/mL hydrocortisone (Sigma-Aldrich, cat. H4001), 9.7 ng/mL human EGF recombinant protein (Invitrogen, cat. PHG0313), 23.4 microg/mL adenine (Sigma-Aldrich, cat. A2786), 97.3 U/mL penicillin-streptomycin (Invitrogen, cat. 15140122), 1.9 mM L-glutamine (Invitrogen, cat. 25030081), and 9.7 microM Y-27632 dihydrochloride (Tocris Bioscience, Bristol, United Kingdom, cat. 1254). The PDCs were cultured in complete DMEM/F12 media without 10 microM Y-27632 dihydrochloride for at least two passages prior to the screen. The established cell lines NCI-H1341 and […] were cultured in DMEM/F-12, HEPES (Invitrogen, cat. 11330032), 5% defined fetal bovine serum (HyClone Laboratories Inc., cat. SH30070.03), ITS premix universal culture supplement [insulin (5 microg/mL), transferrin (5 microg/mL), and selenious acid (5 ng/mL)] […]

[1] = curve of first compound, second compound 0.1 µM
[2] = curve of first compound, second compound 0.316 µM
[3] = curve of first compound, second compound 1 µM
[4] = curve of first compound, second compound 3.16 µM
[5] = curve of first compound, second compound 10 µM
[6] = second compound 0.1 µM, first compound 0.0316 µM
[7] = second compound 0.1 µM, first compound 0.1 µM
[8] = second compound 0.1 µM, first compound 0.316 µM
[9] = second compound 0.1 µM, first compound 1 µM
[10] = second compound 0.1 µM, first compound 3.16 µM
[11] = second compound 0.1 µM, first compound 10 µM
[12] = second compound 0.316 µM, first compound 0.0316 µM
[13] = second compound 0.316 µM, first compound 0.1 µM
[14] = second compound 0.316 µM, first compound 0.316 µM
[15] = second compound 0.316 µM, first compound 1 µM
[16] = second compound 0.316 µM, first compound 3.16 µM
[17] = second compound 0.316 µM, first compound 10 µM
[18] = second compound 1 µM, first compound 0.0316 µM
[19] = second compound 1 µM, first compound 0.1 µM
[20] = second compound 1 µM, first compound 0.316 µM
[21] = second compound 1 µM, first compound 1 µM
[22] = second compound 1 µM, first compound 3.16 µM
[23] = second compound 1 µM, first compound 10 µM
[24] = second compound 3.16 µM, first compound 0.0316 µM
[25] = second compound 3.16 µM, first compound 0.1 µM
[26] = second compound 3.16 µM, first compound 0.316 µM
[27] = second compound 3.16 µM, first compound 1 µM
[28] = second compound 3.16 µM, first compound 3.16 µM
[29] = second compound 3.16 µM, first compound 10 µM
[30] = second compound 10 µM, first compound 0.0316 µM
[31] = second compound 10 µM, first compound 0.1 µM
[32] = second compound 10 µM, first compound 0.316 µM
[33] = second compound 10 µM, first compound 1 µM
[34] = second compound 10 µM, first compound 3.16 µM
[35] = second compound 10 µM, first compound 10 µM
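Note: spheroids exposed to agents for seven days before readout.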
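Throughout, for viability, T/C: percent of DMSO vehicle control luminescence viability.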

IC50 [1] | IC50 [2] | IC50 [3] | IC50 [4] | IC50 [5] | SMILES | viability, T/C [6] | viability, T/C [7] | viability, T/C [8] | viability, T/C [9] | viability, T/C [12] | viability, T/C [13] | viability, T/C [14] | viability, T/C [15] | viability, T/C [18] | viability, T/C [19] | viability, T/C [20] | viability, T/C [21] | viability, T/C [24] | viability, T/C [25] | viability, T/C [26] | also measured
372 nM | 207 nM | 207 nM | 173 nM | < 31.6 nM | COc1cc(C2c3cc4c(cc3C(OC3OC5COC(C)OC5C(O)C3O)C3COC(=O)C23)OCO4)cc(OC)c1O (configuration not stated) + Cc1cncc(-c2nc(NCCc3c[nH]c4ccccc34)c3ncn(C(C)C)c3n2)c1 | 85.9% | 85.5% | 55.4% | 14.8% | 88.4% | 83.7% | 30.2% | 15% | 83.8% | 79.7% | 32.5% | 14.4% | 76.8% | 73.7% | 24.4% | viability, T/C [10]: 9.41%; viability, T/C [11]: 3.49%; viability, T/C [16]: 8.46%; viability, T/C [17]: 3.99%; viability, T/C [22]: 8.33%; viability, T/C [23]: 6.08%; viability, T/C [27]: 13.2%; viability, T/C [28]: 6.72%; viability, T/C [29]: 4.03%; viability, T/C [30]: 9.82%; viability, T/C [31]: 11.7%; viability, T/C [32]: 1.25%; viability, T/C [33]: 0.55%; viability, T/C [34]: 1.09%; viability, T/C [35]: 2.98%
48.3 nM | 46.3 nM | 42.5 nM | 59.5 nM | < 31.6 nM | Nc1ccn(C2OC(CO)C(O)C2(F)F)c(=O)n1 (configuration not stated) + Cc1cncc(-c2nc(NCCc3c[nH]c4ccccc34)c3ncn(C(C)C)c3n2)c1 | 65.8% | 22.5% | 15.1% | 12.1% | 61.6% | 26.9% | 12.9% | 12.8% | 59.6% | 22.8% | 13.5% | 9.62% | 65.2% | 37.5% | 16.2% | viability, T/C [10]: 10.7%; viability, T/C [11]: 7.08%; viability, T/C [16]: 10.2%; viability, T/C [17]: 7.37%; viability, T/C [22]: 10.7%; viability, T/C [23]: 8.49%; viability, T/C [27]: 8.68%; viability, T/C [28]: 11.6%; viability, T/C [29]: 9.18%; viability, T/C [30]: 6.33%; viability, T/C [31]: 1.93%; viability, T/C [32]: 1.21%; viability, T/C [33]: 0.96%; viability, T/C [34]: 2.26%; viability, T/C [35]: 2.09%
– | – | – | – | – | O=C(c1cc(Cc2n[nH]c(=O)c3ccccc23)ccc1F)N1CCN(C(=O)C2CC2)CC1 | – | – | – | – | – | – | – | – | – | – | – | – | – | – | – | viability, T/C (compound 0.0316 µM): 99% and 105% and 111%; viability, T/C (compound 0.1 µM): 112% and 105% and 129%; viability, T/C (compound 0.316 µM): 111% and 99% and 105%; viability, T/C (compound 1 µM): 105% and 98.5% and 116%; viability, T/C (compound 3.16 µM): 114% and 103% and 106%; viability, T/C (compound 10 µM): 87.1% and 93.6% and 102%; IC50 (curve of compound): > 10000 nM
> 1000 nM | > 1000 nM | > 1000 nM | > 1000 nM | > 1000 nM | Nc1ncn(C2CC(O)C(CO)O2)c(=O)n1 (configuration not stated) + CC(CO)NC(=O)c1cc(-c2ccc(Cl)cc2)nn(-c2cnn(C)c2)c1=O | 85% | 85.3% | 73% | 76.3% | 93.3% | 83.6% | 80.7% | 78.2% | 95.7% | 87.4% | 82.5% | 80.2% | 90.2% | 79.8% | 79.5% | viability, T/C (second compound 0.1 µM, first compound 0.00316 µM): 92.6%; viability, T/C (second compound 0.1 µM, first compound 0.01 µM): 92.2%; viability, T/C (second compound 0.316 µM, first compound 0.00316 µM): 94.6%; viability, T/C (second compound 0.316 µM, first compound 0.01 µM): 90.3%; viability, T/C (second compound 1 µM, first compound 0.00316 µM): 103%; viability, T/C (second compound 1 µM, first compound 0.01 µM): 96.6%; viability, T/C (second compound 3.16 µM, first compound 0.00316 µM): 95.3%; viability, T/C (second compound 3.16 µM, first compound 0.01 µM): 93.9%; viability, T/C [27]: 80.9%; viability, T/C (second compound 10 µM, first compound 0.00316 µM): 96.5%; viability, T/C (second compound 10 µM, first compound 0.01 µM): 88.7%; viability, T/C [30]: 88.3%; viability, T/C [31]: 91.5%; viability, T/C [32]: 84.8%; viability, T/C [33]: 76.3%

Source: PubChem BioAssay AID1919005 (Molecular Pharmacology Branch, DTP, NCI, 2023)
